# In ChEMBL document CHEMBL5331112, “Recent Advances in Pro-PROTAC Development to Address On-Target Off-Tumor Toxicity” (J Med Chem, 2023):
# Experiments:
# [1] = Cytotoxicity against human HFF-1 cells assessed as cell growth inhibition; type: toxicity, cell-based
# [2] = molecular target: von Hippel-Lindau disease tumor suppressor/Bromodomain-containing protein 4 (Homo sapiens, UniProt O60885+P40337); assay: PROTAC activity at VHL/BRD4 in human MCF7 cells assessed as degradation of BRD4 incubated by Western blot assay; type: cell-based
# MCF7 [3] = assay: Anticancer activity against human MCF7 cells assessed as cell growth inhibition CCK8 assay; type: functional, cell-based
# MCF7 [4] = assay: Anticancer activity against human MCF7 cells xenografted in mouse assessed as cell growth inhibition […] relative to control; type: functional
# SU-DHL-1 = assay: Anticancer activity against human SU-DHL-1 cells assessed as cell growth inhibition; type: functional, cell-based
# von Hippel-Lindau disease tumor suppressor/Bromodomain-containing protein 4, sequence (P40337 whole entry, looked up, other chains not shown): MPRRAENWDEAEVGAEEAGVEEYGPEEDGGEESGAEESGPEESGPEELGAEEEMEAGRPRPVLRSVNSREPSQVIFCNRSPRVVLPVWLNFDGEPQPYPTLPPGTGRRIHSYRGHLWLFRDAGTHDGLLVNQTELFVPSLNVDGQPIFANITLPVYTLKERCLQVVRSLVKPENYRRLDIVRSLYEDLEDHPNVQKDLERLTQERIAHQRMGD
smiles,measurement,setting,value
Cc1ncsc1-c1ccc([C@H](C)NC(=O)[C@@H]2C[C@@H](OC(=O)CCCCn3cc(CNC(=O)CC[C@H](NC(=O)c4ccc(NCc5cnc6nc(N)[nH]c(=O)c6n5)cc4)C(=O)O)nn3)CN2C(=O)[C@@H](NC(=O)COCCCOCCNC(=O)C[C@@H]2N=C(c3ccc(Cl)cc3)c3c(sc(C)c3C)-n3c(C)nnc32)C(C)(C)C)cc1,IC50,[1],> 10000 nM
CNC(=O)CCC(=O)OCCSSCCOC(=O)O[C@@H]1C[C@@H](C(=O)N[C@@H](C)c2ccc(-c3scnc3C)cc2)N(C(=O)[C@H](NC(=O)COCCOCCOCCNC(=O)C[C@@H]2N=C(c3ccc(Cl)cc3)c3c(sc(C)c3C)-n3c(C)nnc32)C(C)(C)C)C1,DC50,[2],22 nM
same,IC50,MCF7 [3],56.9 nM
same,TGI,MCF7 [4],77.5%
Cc1cc(Nc2ncc(Cl)c(Nc3ccccc3S(=O)(=O)C(C)C)n2)c(OC(C)C)cc1C1CCN(C(=O)CCCC(=O)N[C@H](C(=O)N2C[C@H](OC(=O)CCCCn3cc(CNC(=O)CC[C@H](NC(=O)c4ccc(NCc5cnc6nc(N)[nH]c(=O)c6n5)cc4)C(=O)O)nn3)C[C@H]2C(=O)N[C@@H](C)c2ccc(-c3scnc3C)cc2)C(C)(C)C)CC1,IC50,SU-DHL-1,200 nM
